Data published in patent US20230114241A1, “METHODS OF TREATING EPILEPSY USING THE SAME” (Trevena, Inc., priority 2019, published 2023).

Experiments:
[1] = target: T1, human sphingosine-1-phosphate receptor 1 (S1P1) (Homo sapiens, UniProt P21453); test: Inhibition of cAMP production (HTRF cAMP HiRange), S1P1 CHO-K1 cells; type: cell-based
In short: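 Intracellular cAMP changes read by TR-FRET (HTRF HiRange, 1 h room temperature) after 30 min compound exposure at 37 °C. Cells: overnight-plated CHO-K1 stably expressing tagged human S1P1 with EA-β-arrestin2. Responses normalized to fingolimod.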
Target sequence in this assay (P21453 whole entry): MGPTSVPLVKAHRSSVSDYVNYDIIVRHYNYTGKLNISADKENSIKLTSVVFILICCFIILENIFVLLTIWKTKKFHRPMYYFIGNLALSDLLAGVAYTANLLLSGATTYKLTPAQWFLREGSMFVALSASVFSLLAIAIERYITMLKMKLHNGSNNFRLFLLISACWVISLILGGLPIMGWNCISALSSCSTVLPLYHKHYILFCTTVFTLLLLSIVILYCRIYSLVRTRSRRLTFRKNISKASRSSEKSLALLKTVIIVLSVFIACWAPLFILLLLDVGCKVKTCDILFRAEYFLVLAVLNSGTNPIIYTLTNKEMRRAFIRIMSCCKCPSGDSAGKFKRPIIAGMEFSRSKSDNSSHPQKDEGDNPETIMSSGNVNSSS

[2] = target: T1, human sphingosine-1-phosphate receptor 1 (S1P1); test: β-Arrestin2 recruitment assay (PathHunter), S1P1 CHO-K1 cells; type: cell-based
In short: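 Agonist-driven β-arrestin2 recruitment measured by β-galactosidase complementation after 60 min compound exposure at 37 °C and 1 h detection at room temperature. Cells: stable CHO-K1 line expressing tagged human S1P1 with EA-β-arrestin2, plated the night before. Data expressed relative to fingolimod.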
Target sequence in this assay (P21453 whole entry): as above
Target sequence in this assay (P32121 whole entry partner): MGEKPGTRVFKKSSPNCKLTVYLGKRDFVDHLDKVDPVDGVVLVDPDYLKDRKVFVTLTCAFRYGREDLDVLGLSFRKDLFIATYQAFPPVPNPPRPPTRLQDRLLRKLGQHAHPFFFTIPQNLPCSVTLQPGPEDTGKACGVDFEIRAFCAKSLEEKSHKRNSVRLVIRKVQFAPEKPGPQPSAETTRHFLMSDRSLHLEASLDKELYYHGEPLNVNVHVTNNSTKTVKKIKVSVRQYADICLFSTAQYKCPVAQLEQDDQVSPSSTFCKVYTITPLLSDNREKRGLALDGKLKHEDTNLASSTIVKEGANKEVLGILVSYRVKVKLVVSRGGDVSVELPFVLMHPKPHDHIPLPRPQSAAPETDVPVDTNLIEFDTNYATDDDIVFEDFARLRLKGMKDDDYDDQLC

[3] = CHO-K1, inhibition of cAMP production, efficacy normalized to maximum efficacy of fingolimod, read-out: hS1P1 CAMP SPAN
[4] = inhibition of cAMP production, potency, read-out: hS1P1 CAMP pEC50 (converted)
[5] = CHO-K1, β-arrestin2 recruitment, efficacy normalized to maximum efficacy of fingolimod, read-out: hS1P1 B-arrestin2 SPAN
[6] = β-arrestin2 recruitment, potency, read-out: hS1P1 B-arrestin2 pEC50 (converted)
[7] = CHO-K1, efficacy normalized to maximum efficacy of fingolimod, read-out: hS1P1 CAMP SPAN
[8] = inhibition of cAMP production, S1P1, read-out: hS1P1 CAMP pEC50 (converted)
[9] = CHO-K1, efficacy normalized to maximum efficacy of fingolimod, read-out: hS1P1 B-arrestin2 SPAN
[10] = β-arrestin2 recruitment, S1P1, read-out: hS1P1 B-arrestin2 pEC50 (converted)

CC(C)Oc1ccccc1-c1noc(-c2ccc3c(c2)nnn3C(C)C)n1 [Compound 62, 3-(2-isopropoxyphenyl)-5-(1-isopropyl-1H-benzo[d][1,2,3]triazol-5-yl)-1,2,4-oxadiazole]
Emax [1, 3]: > 75%
EC50 [1, 4]: > 0.316 µM
Emax [2, 5]: > 75%
EC50 [2, 6]: > 10 µM

CC(C)n1nnc2cc(-c3noc(-c4ncccc4O)n3)ccc21 [Compound 602, 2-{3-[1-(propan-2-yl)-1H-1,2,3-benzo-triazol-5-yl]-1,2,4-oxadiazol-5-yl}pyridin-3-ol]
Emax [1, 7]: < 75%
EC50 [1, 8]: > 0.316 µM
Emax [2, 9]: > 75%
EC50 [2, 10]: > 10 µM

COc1ccc(-c2nc(-c3cccc4[nH]ccc34)ns2)cc1 [Compound 361, 4-[5-(4-methoxyphenyl)-1,2,4-thiadiazol-3-yl]-1H-indole]
Emax [1, 3]: < 75%
EC50 [1, 4]: > 0.316 µM
Emax [2, 5]: < 75%
EC50 [2, 6]: > 10 µM

CCC1(CC)CC(=O)c2cc(-c3nc(-c4ccc5ncccc5c4)no3)ccc2O1 [Compound 521, 2,2-diethyl-6-(3-(quinolin-6-yl)-1,2,4-oxadiazol-5-yl)chroman-4-one]
Emax [1, 7]: < 75%
EC50 [1, 8]: > 0.316 µM
Emax [2, 9]: < 75%
EC50 [2, 10]: > 10 µM

Cc1cccc2nc(-c3ccc4c(c3)nnn4CC(C)C)oc12 [Compound 449, 2-(1-isobutyl-1H-benzo[d][1,2,3]triazol-5-yl)-7-methyl-benzo[d]oxazole]
Emax [1, 7]: > 75%
EC50 [1, 8]: > 0.316 µM
Emax [2, 9]: > 75%
EC50 [2, 10]: > 10 µM

CCC1(CC)CC(=O)c2cc(-c3nc(-c4cncc(C(N)=O)c4)no3)ccc2O1 [Compound 537, 5-(5-(2,2-diethyl-4-oxochroman-6-yl)-1,2,4-oxadiazol-3-yl)nicotinamide]
Emax [1, 7]: > 75%
EC50 [1, 8]: < 0.316 µM
Emax [2, 9]: < 75%
EC50 [2, 10]: < 10 µM

COc1ccccc1-c1noc(-c2ccc3[nH]cnc3c2)n1 [Compound 369, 5-(1H-benzo[d]imidazol-5-yl)-3-(2-methoxy-phenyl)-1,2,4-oxadiazole]
Emax [1, 3]: < 75%
EC50 [1, 4]: > 0.316 µM
Emax [2, 5]: < 75%
EC50 [2, 6]: > 10 µM

Cc1ccccc1-c1noc(-c2cnc3c(c2)nnn3C(C)C)n1 [Compound 382, 3-(2-methylphenyl)-5-[3-(propan-2-yl)-3H-[1,2,3]triazolo[4,5-b]pyridin-6-yl]-1,2,4-oxadiazole]
Emax [1, 7]: > 75%
EC50 [1, 8]: < 0.316 µM
Emax [2, 9]: > 75%
EC50 [2, 10]: < 10 µM

Cc1ccccc1-c1nc(-c2ccc3c(ccn3C(C)C)c2)no1 [Compound 389, 3-(1-isopropyl-1H-indol-5-yl)-5-(o-tolyl)-1,2,4-oxadiazole]
Emax [1, 7]: > 75%
EC50 [1, 8]: < 0.316 µM
Emax [2, 9]: > 75%
EC50 [2, 10]: < 10 µM

Cc1cncc(-c2nc(-c3ccc4c(c3)nnn4C(C)C)no2)n1 [Compound 229, 3-(1-isopropyl-1H-benzo[d][1,2,3]triazol-5-yl)-5-(6-methyl-pyrazin-2-yl)-1,2,4-oxadiazole]
Emax [1, 3]: < 75%
EC50 [1, 4]: > 0.316 µM
Emax [2, 5]: < 75%
EC50 [2, 6]: < 10 µM

FC(F)(F)Oc1cccc(-c2nc(-c3ccc4c(c3)nnn4C3CCCC3)no2)c1 [Compound 10, 3-(1-cyclopentyl-1H-benzo[d][1,2,3]triazol-5-yl)-5-(3-(trifluoro-methoxy)phenyl)-1,2,4-oxadiazole]
EC50 [1]: > 0.316 µM
Emax ([1]; CHO-K1, read-out: hS1P1 CAMP SPAN): < 75%
EC50 [2]: > 10 µM
Emax ([2]; CHO-K1, read-out: hS1P1 B-arrestin2 SPAN): < 75%

CC(C)n1nnc2cc(-c3cc(-c4ccccc4F)c[nH]3)ccc21 [Compound 542, 5-[4-(2-fluorophenyl)-1H-pyrrol-2-yl]-1-(propan-2-yl)-1H-1,2,3-benzotriazole]
Emax [1, 7]: < 75%
EC50 [1, 8]: > 0.316 µM
Emax [2, 9]: < 75%
EC50 [2, 10]: < 10 µM

N#Cc1cc(-c2nnc(-c3ccc4c(c3)CCC(=O)N4)o2)ccc1NCC1CC1 [Compound 475, 2-[(cyclopropyl-methyl)amino]-5-[5-(2-oxo-1,2,3,4-tetrahydroquinolin-6-yl)-1,3,4-oxadiazol-2-yl]benzonitrile]
Emax [1, 7]: > 75%
EC50 [1, 8]: < 0.316 µM
Emax [2, 9]: < 75%
EC50 [2, 10]: < 10 µM

CC(C)n1nnc2cc(-c3nsc(-c4ccccc4O)n3)ccc21 [Compound 112, 2-{3-[1-(propan-2-yl)-1H-1,2,3-benzotriazol-5-yl]-1,2,4-thiadiazol-5-yl}phenol]
Emax [1, 3]: > 75%
EC50 [1, 4]: < 0.316 µM
Emax [2, 5]: > 75%
EC50 [2, 6]: < 10 µM

CC(C)Oc1ccc(-c2nc(-c3ccc4c(c3)nnn4C(C)C)no2)cc1C(F)(F)F [Compound 246, 5-(4-isopropoxy-3-(trifluoromethyl)phenyl)-3-(1-isopropyl-1H-benzo[d][1,2,3]triazol-5-yl)-1,2,4-oxadiazole]
Emax [1, 3]: > 75%
EC50 [1, 4]: < 0.316 µM
Emax [2, 5]: > 75%
EC50 [2, 6]: < 10 µM

C=CCn1nnc2cc(-c3nc(-c4ccccc4)no3)ccc21 [Compound 270, 5-(3-phenyl-1,2,4-oxadiazol-5-yl)-1-(prop-2-en-1-yl)-1H-1,2,3-benzotriazole]
Emax [1, 3]: < 75%
EC50 [1, 4]: > 0.316 µM
Emax [2, 5]: < 75%
EC50 [2, 6]: > 10 µM

Cc1occc1-c1noc(-c2ccc3c(c2)nnn3C(C)C)n1 [Compound 491, 5-[3-(2-methylfuran-3-yl)-1,2,4-oxadiazol-5-yl]-1-(propan-2-yl)-1H-1,2,3-benzotriazole]
Emax [1, 7]: > 75%
EC50 [1, 8]: < 0.316 µM
Emax [2, 9]: > 75%
EC50 [2, 10]: < 10 µM

Cc1ccccc1-c1csc(-c2cnc3c(ccn3C(C)C)c2)n1 [Compound 407, 2-(1-isopropyl-pyrrolo[2,3-b]pyridin-5-yl)-4-(o-tolyl)thiazole]
Emax [1, 7]: > 75%
EC50 [1, 8]: > 0.316 µM
Emax [2, 9]: < 75%
EC50 [2, 10]: > 10 µM

Brc1ccccc1-c1nc(-c2ccc3c(c2)nnn3C2CCCC2)no1 [Compound 40, 5-(2-bromophenyl)-3-(1-cyclopentyl-1H-benzo[d][1,2,3]triazol-5-yl)-1,2,4-oxadiazole]
Emax [1, 3]: > 75%
EC50 [1, 4]: < 0.316 µM
Emax [2, 5]: > 75%
EC50 [2, 6]: < 10 µM

CCC1(CC)CC(=O)c2cc(-c3nc(-c4ccco4)no3)ccc2O1 [Compound 465, 2,2-diethyl-6-(3-(furan-2-yl)-1,2,4-oxadiazol-5-yl)chroman-4-one]
Emax [1, 7]: > 75%
EC50 [1, 8]: < 0.316 µM
Emax [2, 9]: > 75%
EC50 [2, 10]: < 10 µM

CCC1(CC)CC(=O)c2cc(-c3nc(-c4ccsc4)no3)ccc2O1 [Compound 468, 2,2-diethyl-6-(3-(thiophen-3-yl)-1,2,4-oxadiazol-5-yl)chroman-4-one]
Emax [1, 7]: > 75%
EC50 [1, 8]: < 0.316 µM
Emax [2, 9]: > 75%
EC50 [2, 10]: < 10 µM

CCC1(CC)CC(=O)c2cc(-c3nc(-c4cccs4)no3)ccc2N1 [Compound 591, 2,2-diethyl-6-(3-(thiophen-2-yl)-1,2,4-oxadiazol-5-yl)-2,3-dihydroquinolin-4(1H)-one]
Emax [1, 7]: < 75%
EC50 [1, 8]: < 0.316 µM
Emax [2, 9]: > 75%
EC50 [2, 10]: < 10 µM

CCC1(CC)CC(=O)c2cc(-c3noc(-c4ccc(NCC5CC5)c(C#N)c4)n3)ccc2O1 [Compound 444, 2-((cyclopropyl-methyl)amino)-5-(3-(2,2-diethyl-4-oxochroman-6-yl)-1,2,4-oxadiazol-5-yl)benzonitrile]
Emax [1, 7]: < 75%
EC50 [1, 8]: > 0.316 µM
Emax [2, 9]: < 75%
EC50 [2, 10]: < 10 µM

CCC1(CC)CC(=O)c2cc(-c3ncc(-c4ccccc4OC)cn3)ccc2O1 [Compound 594, 2,2-diethyl-6-(5-(2-methoxyphenyl)pyrimidin-2-yl)chroman-4-one]
Emax [1, 7]: > 75%
EC50 [1, 8]: < 0.316 µM
Emax [2, 9]: > 75%
EC50 [2, 10]: < 10 µM
